Measured values published in patent publication US10889606B2, “Biflavone-iron complex, preparation method and application thereof” (NANJING FORESTRY UNIVERSITY, priority 2017, dated 2021).

How the values were obtained:
[1] = Pyrogallol auto-oxidation method, O2^−. free radical scavenging; conditions: Tris-HCl pH 8.20, 25° C., 322 nm, read-out: IC50 to scavenge O2^−. free radical
Experimental: (1) Pyrogallol Auto-Oxidation Method
Determination of auto-oxidation rate V0 of pyrogallol: 2 mL Tris-HCl buffer (pH=8.20) was added to a 10 mL sample tube at 25° C., 100 μL, DMSO was added as a control, after adding 0.8 mL distilled water, 0.2 mL pyrogallol solution having a concentration of 2 mmol·L^−1 was added, the mixture was poured into a cuvette after mixing uniformly, the absorbance at 322 nm was measured with pure water as a blank, the A value was recorded every 10 s for a total of 4 min, linear regression was performed with t as the abscissa, and A as the ordinate, straight line slope thereof is V0, and the measurement was performed for three times to obtain an average value.
The free radical scavenging rate was calculated according to Formula 3. SR(%)=(1−v1/v0)×[…] (Formula 3)

herring sperm DNA (fDNA) = test: Interaction with herring sperm DNA (fDNA) by UV-vis spectroscopy, fluorescence spectroscopy and viscosity method; format: binding; conditions: UV-vis, fluorescence (fDNA-EB system), viscosity
Source text: UV-vis spectroscopy, fluorescence spectroscopy and viscosity method are used to study the interaction between the Ame/Ame-Fe complex and herring sperm DNA (fDNA) to further reveal the mechanism of antitumor activity, the obtained spectra are shown in FIGS. 7-11. […] Thereby, it can be speculated that the mechanism of antitumor activity of the Ame and its complex may be that Ame or the complex thereof enters the interior of the cell and intercalates with the DNA strand to cause apoptosis. Since the interaction of the complex with DNA is stronger than of the Ame, the antitumor activity thereof is also stronger than of the Ame.

[2] = ABTS method, ABTS^+. free radical scavenging; conditions: read-out: IC50 for scavenging ABTS^+. free radicals, 25° C., 5 min, 730 nm
Experimental: The free radical scavenging abilities of the Ame and the Ame-Fe complex were studied by pyrogallol auto-oxidation method and ABTS method with the following steps:
Within a certain range, the scavenging rate is linear with the concentration. The curve of the scavenging rate and the concentration (c) is plotted in the present invention to obtain a corresponding linear equation, and the maximum half-inhibitory concentration (IC50 value) is calculated.

O=c1cc(-c2ccc(O)c(-c3c(O)cc(O)c4c(=O)cc(-c5ccc(O)cc5)oc34)c2)oc2cc(O)cc(O)c12 [Ame, amentoflavone]
IC50 [1]: 23.3 µM
manner of interaction with fDNA (herring sperm DNA (fDNA)): in the intercalation manner
IC50 [2]: 20.7 µM
